How the values were obtained:
KMS-28-BM [1] = assay: 7-day co-treatment combination model (Cell Titer Glo); conditions: for IC50: KMS-28BM, 168 h, read-out: 7-day IC50; for combinatorial effect by Loewe volumes / Loewe volume: second agent + tazemetostat; for combinatorial effect by Loewe volumes: 7-day co-treatment, KMS-28-BM t(4;14); for Loewe volume: 7 day co-treatment, KMS-28-BM
Experimental: (§1) Assay plates were developed for endpoint analysis using Cell Titer Glo to measure ATP content, which was used as an indicator of cell viability. DMSO concentration was kept constant throughout the assay at less than 0.2% v/v.
(§2) All cells were maintained as instructed by the supplier and cultures were maintained at 37° C. in a humidified atmosphere and 5% CO2.
(§3) Loewe volumes greater than 1 denoted synergy and volumes <−1 denoted antagonism.

MM1.S [2] = assay: as above; conditions: Homo sapiens, 168 h, read-out: 7-day IC50
Experimental: as §1
(§4) Cell lines: The cell lines MI1.S and U266B1 were obtained from American Type Culture Collection (ATCC; Rockville, MD). […] All cells were maintained as instructed by the supplier and cultures were maintained at 37° C. in a humidified atmosphere and 5% CO2.
as §3

RPMI-8226 [3] = assay: as above
Experimental: as §1, §4, §3

U266 = assay: 7 day pretreatment + 4-day co-treatment combination model (Cell Titer Glo); conditions: for IC50: Homo sapiens, U-266, 96 h, read-out: 4-day IC50; for combinatorial effect by Loewe volumes: second agent + tazemetostat, 7 day pretreatment + 4-day co-treatment, U266 t(11;14)
Text: as §1
(§5) Cell lines: The cell lines MI1.S and U266B1 were obtained from American Type Culture Collection (ATCC; Rockville, MD). The cell lines LP-1, L-363 were obtained from Deutsche Sammlung von Mikroorganismen and Zellkulturen (DSMZ; Braunschweig, Germany) and the cell line KMS-28BM was obtained from Japanese Collection of Research Bioresources Cell Bank (JCRB, Osaka Japan). All cells were maintained as instructed by the supplier and cultures were maintained at 37° C. in a humidified atmosphere and 5% CO2.
as §3

LP-1 [4] = assay: as above; conditions: for IC50: Homo sapiens, LP-1, 96 h, read-out: 4-day IC50; for combinatorial effect by Loewe volumes: second agent + tazemetostat, 7 day pretreatment + 4-day co-treatment, LP-1 t(4;14)
KMS-28-BM [5] = assay: as above; conditions: for IC50: KMS-28BM, 96 h, read-out: 4-day IC50; for Loewe volume / combinatorial effect by Loewe volumes: second agent + tazemetostat, 7 day pretreatment + 4-day co-treatment; for Loewe volume: KMS-28-BM; for combinatorial effect by Loewe volumes: KMS-28-BM t(4;14)
Experimental: as §1, §2, §3

L-363 = assay: as above; conditions: for IC50: Homo sapiens, L-363, 96 h, read-out: 4-day IC50; for combinatorial effect by Loewe volumes: second agent + tazemetostat, 7 day pretreatment + 4-day co-treatment, L-363 t(20;22)
Text: as §1, §5, §3

MM1.S [6] = assay: as above; conditions: Homo sapiens, MM1.S, 96 h, read-out: 4-day IC50
Text: as §1, §5, §3

[7] = system: multiple myeloma cell lines and primary patient samples; conditions: reported in the literature; cited from earlier work
MOLP-8 [8] = assay: 7-day co-treatment combination model (Cell Titer Glo); conditions: second agent + tazemetostat; for combinatorial effect by Loewe volumes: 7-day co-treatment, MOLP-8 t(11;14); for Loewe volume: 7 day co-treatment, MOLP-8
Experimental: as §1, §2, §3

LP-1 [9] = assay: as above; conditions: second agent + tazemetostat; 7-day co-treatment; LP-1 t(4;14)
Experimental: as §1, §2, §3

MOLP-8 [10] = assay: 7 day pretreatment + 4-day co-treatment combination model (Cell Titer Glo); conditions: second agent + tazemetostat, MOLP-8 t(11;14)
Experimental: as §1, §2, §3

[11] = system: Ikaros, Aiolos, IRF4 expression in RPMI-8226 cells; assay: western blot of Ikaros, Aiolos, IRF4 in RPMI-8226 cells; type: cell-based; conditions: 3 days
RPMI-8226 [12] = assay: apoptosis in RPMI-8226 cells; type: cell-based; conditions: tazemetostat 31, 125, 500 nM + pomalidomide 3, 12.5, 50 nM, 3 days
[13] = second agent + tazemetostat, 7 day co-treatment

Compound | IC50 (MM1.S [2]) [nM] | IC50 (U266) [nM] | IC50 (MM1.S [6]) [nM] | IC50 (KMS-28-BM [1]) [nM] | IC50 (LP-1 [4]) [nM] | IC50 (KMS-28-BM [5]) [nM] | IC50 (L-363) [nM] | combinatorial effect by Loewe volumes (MOLP-8 [8]) | Loewe volume (MOLP-8 [8]) | combinatorial effect by Loewe volumes (LP-1 [9]) | combinatorial effect by Loewe volumes (KMS-28-BM [1]) | Loewe volume (KMS-28-BM [1]) | Loewe volume (RPMI-8226 [3]; [13]) | combinatorial effect by Loewe volumes (U266) | combinatorial effect by Loewe volumes (MOLP-8 [10]) | combinatorial effect by Loewe volumes (LP-1 [4]) | Loewe volume (KMS-28-BM [5]) | combinatorial effect by Loewe volumes (KMS-28-BM [5]) | combinatorial effect by Loewe volumes (L-363) | further results
CCCc1cc(C)[nH]c(=O)c1CNC(=O)c1cc(-c2ccnc(N3CCN(C)CC3)c2)cc2c1cnn2C(C)C [GSK343] |  |  |  |  |  |  |  |  |  |  |  |  |  |  |  |  |  |  |  | growth of multiple myeloma cell lines and primary patient samples [7]: inhibited
CCN(c1cc(-c2ccc(CN3CCOCC3)cc2)cc(C(=O)NCc2c(C)cc(C)[nH]c2=O)c1C)C1CCOCC1 [Tazemetostat, tazemetostat] |  |  |  |  |  |  |  |  |  |  |  |  |  |  |  |  |  |  |  | IRF4 expression, single agent ([11]; single agent 31, 125 or 500 nM): reduces TRF4 expression

Second part, led by results:

IC50 (MM1.S [2]) [nM] | IC50 (U266) [nM] | IC50 (MM1.S [6]) [nM] | Compound | IC50 (KMS-28-BM [1]) [nM] | IC50 (LP-1 [4]) [nM] | IC50 (KMS-28-BM [5]) [nM] | IC50 (L-363) [nM] | combinatorial effect by Loewe volumes (MOLP-8 [8]) | Loewe volume (MOLP-8 [8]) | combinatorial effect by Loewe volumes (LP-1 [9]) | combinatorial effect by Loewe volumes (KMS-28-BM [1]) | Loewe volume (KMS-28-BM [1]) | Loewe volume (RPMI-8226 [3]; [13]) | combinatorial effect by Loewe volumes (U266) | combinatorial effect by Loewe volumes (MOLP-8 [10]) | combinatorial effect by Loewe volumes (LP-1 [4]) | Loewe volume (KMS-28-BM [5]) | combinatorial effect by Loewe volumes (KMS-28-BM [5]) | combinatorial effect by Loewe volumes (L-363) | further results
1.92 | 2 | 1.4 | CC(C)C[C@H](NC(=O)[C@H](Cc1ccccc1)NC(=O)c1cnccn1)B(O)O [Bortezomib, bortezomib] | 5.22 | 3 | 3 | 5 |  |  |  |  |  |  |  |  |  |  |  |  | vbliss (RPMI-8226 [3]; second agent + tazemetostat, 7 day co-treatment, printed in Loewe volume column): vbliss: 0.24
1.34 | 5 | 5.8 | Cc1[nH]c2ccccc2c1CCNCc1ccc(/C=C/C(=O)NO)cc1 [Panobinostat, panobinostat] | 1.26 | 3 | 2.5 | 3 | S (Synergy) | 2.14 | S (Synergy) | S (Synergy) | 5.19 | 2.24 | S (Synergy) | A (Additive) | S (Synergy) | 2.03 | S (Synergy) | S (Synergy) | 
35.2 | > 10000 | 47 | Nc1cccc2c1C(=O)N(C1CCC(=O)NC1=O)C2=O (stereo not shown) [Pomalidomide, pomalidomide] | 100 | 106 | 2540 | 69 | S (Synergy) | 5.73 | S (Synergy) | S (Synergy) | 7.65 | 3.9 | S (Synergy) | S (Synergy) | S (Synergy) | 6.37 | S (Synergy) | S (Synergy) | IRF4 expression, combined treatment ([11]; pomalidomide + tazemetostat vs either alone): enhances repression of IRF4; Ikaros and Aiolos levels ([11]; single agent 12.5, 50 or 200 nM): results in Ikaros and Aiolos degradation; apoptosis (RPMI-8226 [12]): enhanced apoptosis; curve shift analysis of combination (RPMI-8226 [3]; pomalidomide + tazemetostat, 7-day combination assay (FIG. 8)): synergy
